From patent publication US8106197B2, “Aminoheteroaryl compounds as protein kinase inhibitors” (Pfizer Inc., priority 2003, dated 2012)

Target: T1, HGFR (Homo sapiens, UniProt P08581)
T1 construct: purchased Upstate 14-526
Test: HGFR continuous-coupled spectrophotometric assay
Format: biochemical
Details: not given

T1 sequence (P08581 974-1390 limits assumed): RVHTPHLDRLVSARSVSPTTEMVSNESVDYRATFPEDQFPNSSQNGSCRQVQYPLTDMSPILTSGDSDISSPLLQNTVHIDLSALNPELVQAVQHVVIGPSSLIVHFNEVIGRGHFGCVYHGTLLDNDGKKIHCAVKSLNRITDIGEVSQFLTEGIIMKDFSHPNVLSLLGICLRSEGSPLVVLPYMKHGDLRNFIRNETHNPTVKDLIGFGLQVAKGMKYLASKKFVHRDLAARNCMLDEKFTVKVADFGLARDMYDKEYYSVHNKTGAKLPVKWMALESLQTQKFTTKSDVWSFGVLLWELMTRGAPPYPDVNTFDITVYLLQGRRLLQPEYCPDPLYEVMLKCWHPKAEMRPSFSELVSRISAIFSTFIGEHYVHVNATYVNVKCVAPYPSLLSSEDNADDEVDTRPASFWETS

Row | % inhibition | Compound
1 | % inhibition = 6 | Nc1ncc(-c2ccc(C(=O)N3CCC(N4CCCC4)CC3)cc2)cc1OCc1nc(NC2CC2)c2ccccc2n1
2 | % inhibition = 20 | COc1cc(OC)nc(COc2cc(-c3ccc(C(=O)N4CCC(N5CCCC5)CC4)cc3)cnc2N)n1
3 | % inhibition = 12 | Nc1ncc(-c2ccc(C(=O)N3CCC(N4CCCC4)CC3)cc2)cc1OCc1ccc(C(=O)N2CCN(Cc3ccccc3)CC2)cc1
4 | % inhibition = 19 | Nc1ncc(-c2ccc(C(=O)N3CCC(N4CCCC4)CC3)cc2)cc1OCc1ccc(Cl)s1
5 | % inhibition = 27 | Nc1ncc(-c2ccc(C(=O)N3CCC(N4CCCC4)CC3)cc2)cc1OCc1noc(-c2cccc(C(F)(F)F)c2)n1
6 | % inhibition = 13 | COc1ccc2sc(COc3cc(-c4ccc(C(=O)N5CCC(N6CCCC6)CC5)cc4)cnc3N)cc2c1
7 | % inhibition = 12 | Nc1ncc(-c2ccc(C(=O)N3CCC(N4CCCC4)CC3)cc2)cc1OCc1cccc(C(=O)NCCc2ccccn2)c1
8 | % inhibition = 23 | Nc1ncc(-c2ccc(C(=O)N3CCC(N4CCCC4)CC3)cc2)cc1OCc1cc(-c2ccccc2)no1
9 | % inhibition = 59 | Nc1ncc(-c2ccc(C(=O)N3CCC(N4CCCC4)CC3)cc2)cc1OCc1ccc2ccccc2c1Br
10 | % inhibition = 40 | Nc1ncc(-c2ccc(C(=O)N3CCC(N4CCCC4)CC3)cc2)cc1OCc1cccc(Cl)c1Cl
11 | % inhibition = 12 | Cc1[nH]cnc1COc1cc(-c2ccc(C(=O)N3CCC(N4CCCC4)CC3)cc2)cnc1N
12 | % inhibition = 64 | Nc1ncc(-c2ccc(C(=O)N3CCC(N4CCCC4)CC3)cc2)cc1OCc1nc(-c2cccc(C(=O)Nc3ccc(F)cc3)c2)no1
13 | % inhibition = 12 | CC(C)Cc1noc(COc2cc(-c3ccc(C(=O)N4CCC(N5CCCC5)CC4)cc3)cnc2N)n1
14 | % inhibition = 7 | Nc1ncc(-c2ccc(C(=O)N3CCC(N4CCCC4)CC3)cc2)cc1OCc1ccc(C(=O)NCc2ccccn2)cc1
15 | % inhibition = 19 | Nc1ncc(-c2ccc(C(=O)N3CCC(N4CCCC4)CC3)cc2)cc1OCc1cc(F)c(F)c(F)c1
16 | % inhibition = 26 | Nc1ncc(-c2ccc(C(=O)N3CCC(N4CCCC4)CC3)cc2)cc1OCc1ccc(Cl)c(Cl)c1
17 | % inhibition = 9 | Nc1ncc(-c2ccc(C(=O)N3CCC(N4CCCC4)CC3)cc2)cc1OCc1nc(CS(=O)(=O)c2ccccn2)no1

Row | % inhibition | Compound
18 | % inhibition = 28 | Cc1cccc(COc2cc(-c3ccc(C(=O)N4CCC(N5CCCC5)CC4)cc3)cnc2N)c1F
19 | % inhibition = 5 | Cn1nc(-c2ccccc2)nc1COc1cc(-c2ccc(C(=O)N3CCC(N4CCCC4)CC3)cc2)cnc1N
20 | % inhibition = 17 | Cc1cccc(COc2cc(-c3ccc(C(=O)N4CCC(N5CCCC5)CC4)cc3)cnc2N)n1
21 | % inhibition = 11 | Nc1ncc(-c2ccc(C(=O)N3CCC(N4CCCC4)CC3)cc2)cc1OCc1ccc(C(=O)NC2CCN(Cc3ccccc3)CC2)cc1
22 | % inhibition = 14 | CCOC(=O)CCNC(=O)c1cccc(COc2cc(-c3ccc(C(=O)N4CCC(N5CCCC5)CC4)cc3)cnc2N)c1
23 | % inhibition = 16 | Cc1cc(C)nc(COc2cc(-c3ccc(C(=O)N4CCC(N5CCCC5)CC4)cc3)cnc2N)n1
24 | % inhibition = 12 | Cc1nc2ccc(COc3cc(-c4ccc(C(=O)N5CCC(N6CCCC6)CC5)cc4)cnc3N)cc2c(=O)[nH]1
25 | % inhibition = 5 | Cn1nc(C2CC2)nc1COc1cc(-c2ccc(C(=O)N3CCC(N4CCCC4)CC3)cc2)cnc1N
26 | % inhibition = 18 | Nc1ncc(-c2ccc(C(=O)N3CCC(N4CCCC4)CC3)cc2)cc1OCc1ccc(F)cc1F
27 | % inhibition = 10 | Nc1ncc(-c2ccc(C(=O)N3CCC(N4CCCC4)CC3)cc2)cc1OCc1ccc(C(=O)NCCN2CCCC2)cc1
28 | % inhibition = 49 | Nc1ncc(-c2ccc(C(=O)N3CCC(N4CCCC4)CC3)cc2)cc1OCc1ccc(OCc2ccccc2)cc1
29 | % inhibition = 19 | Nc1ncc(-c2ccc(C(=O)N3CCC(N4CCCC4)CC3)cc2)cc1OCc1nc2ncccn2n1
30 | % inhibition = 17 | Cc1oc(-c2ccc(F)cc2)nc1COc1cc(-c2ccc(C(=O)N3CCC(N4CCCC4)CC3)cc2)cnc1N
31 | % inhibition = 13 | Nc1ncc(-c2ccc(C(=O)N3CCC(N4CCCC4)CC3)cc2)cc1OCc1cccc(C(=O)NC2CCN(Cc3ccccc3)C2)c1 (stereo not shown)
32 | % inhibition = 12 | Nc1ncc(-c2ccc(C(=O)N3CCC(N4CCCC4)CC3)cc2)cc1OCc1cc(F)c(F)cc1F
33 | % inhibition = 11 | CS(=O)(=O)c1ccc(COc2cc(-c3ccc(C(=O)N4CCC(N5CCCC5)CC4)cc3)cnc2N)cc1
34 | % inhibition = 21 | Nc1ncc(-c2ccc(C(=O)N3CCC(N4CCCC4)CC3)cc2)cc1OCc1ccccc1OC(F)(F)F

Same assay, conditions: Table 3; Ki(μM) or I(%); test concentration not given

Row | I(%) | Compound
35 | 7 | CCN1CCN(C(=O)c2ccc(-c3cnc(N)c(OCc4ccccc4)c3)cc2)CC1 [Example I-623, [4-(6-Amino-5-benzyloxy-pyridin-3-yl)-phenyl]-(4-ethyl-piperazin-1-yl)-methanone]
36 | 25 | Cc1ccccc1-c1cnc(N)c(OC(C)c2c(Cl)ccc(F)c2Cl)c1 (stereo not shown) [Example I-565, 3-[1-(2,6-Dichloro-3-fluoro-phenyl)-ethoxy]-5-o-tolyl-pyridin-2-ylamine]
37 | 10 | CC1CN(C(=O)c2ccc(-c3cnc(N)c(OCc4c(Cl)cccc4Cl)c3)cc2)CC(C)N1 (stereo not shown) [Example I-634, {4-[6-Amino-5-(2,6-dichloro-benzyloxy)-pyridin-3-yl]-phenyl}-(3,5-dimethyl-piperazin-1-yl)-methanone]
38 | 6 | COC(=O)c1cccc(COc2cc(-c3ccc(C(=O)N4CCC(N5CCCC5)CC4)cc3)cnc2N)c1 [Example I-625, 3-{2-Amino-5-[4-(4-pyrrolidin-1-yl-piperidzne-1-carbonyl)-phenyl]-pyridin-3-yloxymethyl)-benzoic acid methyl ester]

Row | Compound | I(%)
39 | CC(Oc1cc(-c2ccc(C(=O)N3CCC(N4CCCC4)CC3)cc2)cnc1N)c1ccc(C(=O)NCCc2cccc(O)c2)cc1 (stereo not shown) [Example I-629, 4-(1-{2-Amino-5-[4-(4-pyrrolidin-1-yl-piperidine-1-carbonyl)-phenyl]-pyridin-3-yloxy}-ethyl)-[2-(3-hydroxy-phenyl)-ethyl]-benzamide] | 7

Same assay, conditions: Table 5; percent c-MET inhibition at 50 nM

Row | inhibition at 0.05 µM [%] | Compound
40 | 60 | CC(Oc1cc(-c2ccc(C(=O)NC[C@H]3CCCO3)cc2)cnc1N)c1c(Cl)ccc(F)c1Cl (stereo partly shown)
41 | 84 | CC(Oc1cc(-c2ccc(C(=O)N3CCCC(CO)C3)cc2)cnc1N)c1c(Cl)ccc(F)c1Cl (stereo not shown)
42 | 67 | CC(Oc1cc(-c2ccc(C(=O)NC[C@@H]3CCCC[C@H]3O)cc2)cnc1N)c1c(Cl)ccc(F)c1Cl (stereo partly shown)
43 | 65 | CC(Oc1cc(-c2ccc(C(=O)NC(CO)C(C)C)cc2)cnc1N)c1c(Cl)ccc(F)c1Cl (stereo not shown)
44 | 69 | CC(Oc1cc(-c2ccc(C(=O)N[C@H](CO)c3ccccc3)cc2)cnc1N)c1c(Cl)ccc(F)c1Cl (stereo partly shown)
45 | 68 | CC(Oc1cc(-c2ccc(C(=O)N[C@H]3CC[C@H](CO)CC3)cc2)cnc1N)c1c(Cl)ccc(F)c1Cl (stereo partly shown)

Same assay, conditions: Table 6; percent c-MET inhibition at 1 μM; read-out: % inhibition

Row | inhibition at 1 µM [%] | Compound
46 | 23 | CS(=O)(=O)C1CCN(C(=O)c2cnc(N)c(OCc3c(Cl)cccc3Cl)c2)C1 (stereo not shown)
47 | 26 | Nc1ncc(C(=O)N2CCC3(CC2)CC3C(=O)N2CCCCC2)cc1OCc1c(Cl)cccc1Cl (stereo not shown)
48 | 24 | Nc1ncc(C(=O)N2CCN(CC(=O)N3CCCCC3)CC2)cc1OCc1c(Cl)cccc1Cl
49 | 20 | Cc1cc2cc(CNC(=O)c3cnc(N)c(OCc4c(Cl)cccc4Cl)c3)ccc2[nH]1
50 | 26 | Nc1ncc(C(=O)N2CCN(Cc3cccc4ccccc34)CC2)cc1OCc1c(Cl)cccc1Cl
51 | 27 | Nc1ncc(C(=O)NC2CCN(Cc3ccccc3)C2)cc1OCc1c(Cl)cccc1Cl (stereo not shown)
52 | 26 | Nc1ncc(C(=O)NCc2ccc(OC(F)F)cc2)cc1OCc1c(Cl)cccc1Cl
53 | 39 | NC(=O)C1CCCN(C(=O)c2cnc(N)c(OCc3c(Cl)cccc3Cl)c2)C1 (stereo not shown)
54 | 16 | Nc1ncc(C(=O)N2CCCC(F)(F)C2)cc1OCc1c(Cl)cccc1Cl
55 | 30 | Nc1ncc(C(=O)NCC(F)(F)F)cc1OCc1c(Cl)cccc1Cl
56 | 83 | Nc1ncc(C(=O)N2CCC(O)C2)cc1OCc1c(Cl)cccc1Cl (stereo not shown)
57 | 23 | Cc1nc(CCNC(=O)c2cnc(N)c(OCc3c(Cl)cccc3Cl)c2)c[nH]1
58 | 39 | CC(C)(CO)CNC(=O)c1cnc(N)c(OCc2c(Cl)cccc2Cl)c1
59 | 40 | Nc1ncc(C(=O)N2CCN(CCCN3CCOCC3)CC2)cc1OCc1c(Cl)cccc1Cl
60 | 42 | CN(C)C(=O)CN1CCN(C(=O)c2cnc(N)c(OCc3c(Cl)cccc3Cl)c2)CC1
61 | 47 | CC(C)CNC(=O)c1ccc(Cl)c(CNC(=O)c2cnc(N)c(OCc3c(Cl)cccc3Cl)c2)c1
62 | 25 | Nc1ncc(C(=O)N2CCC(O)(CCc3ccncc3)CC2)cc1OCc1c(Cl)cccc1Cl
63 | 31 | Nc1ncc(C(=O)N2CCN(CCCO)CC2)cc1OCc1c(Cl)cccc1Cl
64 | 56 | Nc1ncc(C(=O)N2CCN(CC(=O)Nc3ccccn3)CC2)cc1OCc1c(Cl)cccc1Cl
65 | 49 | CC(O)CNC(=O)c1cnc(N)c(OCc2c(Cl)cccc2Cl)c1 (stereo not shown)
66 | 20 | Nc1ncc(C(=O)N2CCCC(N3CCC(CO)CC3)CC2)cc1OCc1c(Cl)cccc1Cl (stereo not shown)
67 | 16 | Nc1ncc(C(=O)NCc2ccc[nH]c2=O)cc1OCc1c(Cl)cccc1Cl
68 | 31 | Nc1ncc(C(=O)N2CCNC(=O)CC2)cc1OCc1c(Cl)cccc1Cl
69 | 26 | CN(CCS(C)(=O)=O)C(=O)c1cnc(N)c(OCc2c(Cl)cccc2Cl)c1
70 | 25 | Nc1ncc(C(=O)N2CCCC(Cc3ncccn3)C2)cc1OCc1c(Cl)cccc1Cl (stereo not shown)
71 | 19 | Cc1cc(CCC2COC3(CCN(C(=O)c4cnc(N)c(OCc5c(Cl)cccc5Cl)c4)CC3)C2)no1 (stereo not shown)
72 | 31 | Nc1ncc(C(=O)NCc2ccccc2OC(F)(F)F)cc1OCc1c(Cl)cccc1Cl
73 | 16 | Nc1ncc(C(=O)NC2CCCNC2=O)cc1OCc1c(Cl)cccc1Cl (stereo not shown)
